Values quoted from earlier work as cited in US20080089854A1, “Skin care compositions” (priority 2006, published 2008).

Columns and labels:
[1] = topical application
[2] = animal studies

SMILES: O=C(O)CCCCCCCC(=O)O [azelaic acid]
- share of topically applied azelaic acid that is absorbed [1]: about 3.6%
- adverse effects on fertility or reproduction [2]: no adverse effects
